# The source made the active and inactive calls. The calls are words filed in the database; no cut-off is given here.
# Columns and labels:
# [1] = Metabolic stability in human liver microsomes assessed as half life measured upto 60 mins by LC/MS-MS analysis; type: ADME, Microsome
# [2] = target: T1, Bromodomain-containing protein 4 (Homo sapiens, UniProt O60885); test: Displacement of tetra-acetylated histone H4 peptide (1-21) from recombinant human N-terminal His-tagged BRD4 BD2 (349 to 460 residues) expressed in Escherichia coli incubated for 30 mins followed by further incubation with tetra-acetylated histone H4 peptide (1-21) for 30 mins by Alphascreen assay
# Rattus norvegicus [3] = test: In vivo inhibition of MSU-induced pyroptosis in Sprague-Dawley rat model of acute gout arthritis assessed as caspase+/PI- macrophage cells in synovial tissue at 1 mg/kg, ia administered 1 hr before MSU challenge and measured upto 24 hrs by PI staining based flow cytometric analysis (reference value: 21.9 %); type: functional; design: scale not given: the % may be the effect or the level left
# [4] = target: T1, Bromodomain-containing protein 4; test: Inhibition of BRD4 BD1 in human THP1 cells assessed as inhibition of MSU-induced ASC activation at 1 uM incubated for 1 hr followed by MSU treatment and measured after 12 hrs by immunofluorescence based confocal microscopy analysis; type: cell-based
# [5] = Metabolic stability in monkey liver microsomes assessed as intrinsic clearance per mg protein measured upto 60 mins by LC/MS-MS analysis; type: ADME, Macaca mulatta, Microsome; details: rhesus monkey, read-out: CLH
# [6] = Metabolic stability in rat liver microsomes assessed as intrinsic clearance measured per mg protein upto 60 mins by LC/MS-MS analysis; type: ADME, Microsome; details: read-out: CLH
# [7] = Metabolic stability in rat liver microsomes assessed as half life measured upto 60 mins by LC/MS-MS analysis; type: ADME, Microsome
# [8] = target: T1, Bromodomain-containing protein 4; test: Binding affinity to immobilized DNA-tagged human BRD4 BD2 by BROMOscan analysis
# Rattus norvegicus [9] = test: In vivo inhibition of MSU-induced NF-kappaB P65 phosphorylation in synovial tissue of Sprague-Dawley rat model of acute gout arthritis at 1 mg/kg, ia administered 1 hr before MSU challenge and measured upto 24 hrs by Western blot analysis; type: functional, organism-based
# [10] = target: T1, Bromodomain-containing protein 4; test: Inhibition of MSU-induced BRD4 expression in human THP1 cells at 1 uM incubated for 1 hr followed by MSU treatment and measured after 12 hrs by Western blot analysis; type: cell-based
# Homo sapiens [11] = organism: Homo sapiens; test: Selectivity ratio of Kd for immobilized DNA-tagged human BRD4 BD1 to Kd for immobilized DNA-tagged human BRD4 BD2 by BROMOscan analysis
# Rattus norvegicus [12] = test: In vivo inhibition of MSU-induced ASC activation in synovial tissue of Sprague-Dawley rat model of acute gout arthritis at 1 mg/kg, ia administered 1 hr before MSU challenge and measured upto 24 hrs by immunofluorescence based confocal microscopy analysis; type: functional, organism-based
# Homo sapiens [13] = organism: Homo sapiens; test: Selectivity index, ratio of IC50 BRD2 BD1 (unknown origin) to IC50 for recombinant human N-terminal His-tagged BRD4 BD1 (44 to 170 residues) expressed in Escherichia coli by AlphaScreen assay
# [14] = target: Bromodomain testis-specific protein (Homo sapiens, UniProt Q58F21); test: Displacement of tetra-acetylated histone H4 peptide (1-21) from BRDT BD1 (unknown origin) incubated for 30 mins followed by further incubation with tetra-acetylated histone H4 peptide (1-21) for 30 mins by Alphascreen assay
# [15] = target: Bromodomain-containing protein 2 (Homo sapiens, UniProt P25440); test: Displacement of tetra-acetylated histone H4 peptide (1-21) from BRD2 BD1 (unknown origin) incubated for 30 mins followed by further incubation with tetra-acetylated histone H4 peptide (1-21) for 30 mins by Alphascreen assay
# Rattus norvegicus [16] = test: Anti-arthritic activity in Sprague-Dawley rat model of acute gout arthritis assessed as reduction in MSU-induced joint swelling at 1 mg/kg, ia administered 1 hr before MSU challenge and measured upto 24 hrs; type: functional, organism-based
# Rattus norvegicus [17] = test: In vivo inhibition of MSU-induced pyroptosis in Sprague-Dawley rat model of acute gout arthritis assessed as caspase-/PI+ macrophage cells in synovial tissue at 1 mg/kg, ia administered 1 hr before MSU challenge and measured upto 24 hrs by PI staining based flow cytometric analysis (reference value: 8.71 %); type: functional; design: scale not given: the % may be the effect or the level left
# Homo sapiens [18] = organism: Homo sapiens; test: Selectivity index, ratio of IC50 for BRPF1b (unknown origin) to IC50 for recombinant human N-terminal His-tagged BRD4 BD1 (44 to 170 residues) expressed in Escherichia coli by AlphaScreen assay
# Rattus norvegicus [19] = test: Anti-arthritic activity in Sprague-Dawley rat model of acute gout arthritis assessed as reduction in MSU-induced neutrophil infiltration in synovial tissue at 1 mg/kg, ia administered 1 hr before MSU challenge and measured upto 24 hrs hematoxylin and eosin staining based histopathological analysis; type: functional, organism-based
# [20] = Metabolic stability in dog assessed as intrinsic hepatic clearance by LC/MS-MS analysis; type: ADME, Canis lupus familiaris; details: read-out: CLH
# [21] = target: T1, Bromodomain-containing protein 4; test: Inhibition of BRD4 BD1 in human THP1 cells assessed as inhibition of MSU-induced pyroptosis by measuring caspase+/PI+ cells at 1 uM incubated for 1 hr followed by MSU treatment and measured after 12 hrs by PI/caspase 1 double staining based flow cytometric analysis (reference value: 12.7 %); type: cell-based; design: scale not given: the % may be the effect or the level left
# [22] = target: T1, Bromodomain-containing protein 4; test: Inhibition of BRD4 BD1 in human THP1 cells assessed as inhibition of MSU-induced NLRP3 inflammasome at 1 uM incubated for 1 hr followed by MSU treatment and measured after 12 hrs by immunofluorescence based confocal microscopy analysis; type: cell-based
# [23] = target: T1, Bromodomain-containing protein 4; test: Binding affinity to immobilized DNA-tagged human BRD4 BD1 by BROMOscan analysis
# [24] = Metabolic stability in human assessed as intrinsic hepatic clearance by LC/MS-MS analysis; type: ADME; details: read-out: CLH
# Homo sapiens [25] = organism: Homo sapiens; test: Selectivity index, ratio of IC50 for BRD2 BD2 (unknown origin) to IC50 for BRD2 BD1 (unknown origin) by AlphaScreen assay
# Homo sapiens [26] = organism: Homo sapiens; test: Selectivity index, ratio of IC50 for BRDT BD1 (unknown origin) to IC50 for recombinant human N-terminal His-tagged BRD4 BD1 (44 to 170 residues) expressed in Escherichia coli by AlphaScreen assay
# [27] = target: T1, Bromodomain-containing protein 4; test: Inhibition of BRD4 BD1 in human THP1 cells assessed as inhibition of MSU-induced pyroptosis by measuring caspase+/PI- cells at 1 uM incubated for 1 hr followed by MSU treatment and measured after 12 hrs by PI/caspase 1 double staining based flow cytometric analysis (reference value: 4.2 %); type: cell-based; design: scale not given: the % may be the effect or the level left
# [28] = target: Bromodomain-containing protein 3 (Homo sapiens, UniProt Q15059); test: Displacement of tetra-acetylated histone H4 peptide (1-21) from BRD3 BD1 (unknown origin) incubated for 30 mins followed by further incubation with tetra-acetylated histone H4 peptide (1-21) for 30 mins by Alphascreen assay
# [29] = Metabolic stability in dog liver microsomes assessed as intrinsic clearance measured per mg protein upto 60 mins by LC/MS-MS analysis; type: ADME, Canis lupus familiaris, Microsome; details: read-out: CLH
# Homo sapiens [30] = organism: Homo sapiens; test: Selectivity index, ratio of IC50 for BRD3 BD2 (unknown origin) to IC50 for recombinant human N-terminal His-tagged BRD4 BD1 (44 to 170 residues) expressed in Escherichia coli by AlphaScreen assay
# [31] = Metabolic stability in human liver microsomes assessed as intrinsic clearance measured per mg protein upto 60 mins by LC/MS-MS analysis; type: ADME, Microsome; details: read-out: CLH
# Rattus norvegicus [32] = test: In vivo inhibition of MSU-induced NLRP3 inflammasome in synovial tissue of Sprague-Dawley rat model of acute gout arthritis at 1 mg/kg, ia administered 1 hr before MSU challenge and measured upto 24 hrs by immunofluorescence based confocal microscopy analysis; type: functional, organism-based
# Chain of Bromodomain-containing protein 2 (P25440 whole entry): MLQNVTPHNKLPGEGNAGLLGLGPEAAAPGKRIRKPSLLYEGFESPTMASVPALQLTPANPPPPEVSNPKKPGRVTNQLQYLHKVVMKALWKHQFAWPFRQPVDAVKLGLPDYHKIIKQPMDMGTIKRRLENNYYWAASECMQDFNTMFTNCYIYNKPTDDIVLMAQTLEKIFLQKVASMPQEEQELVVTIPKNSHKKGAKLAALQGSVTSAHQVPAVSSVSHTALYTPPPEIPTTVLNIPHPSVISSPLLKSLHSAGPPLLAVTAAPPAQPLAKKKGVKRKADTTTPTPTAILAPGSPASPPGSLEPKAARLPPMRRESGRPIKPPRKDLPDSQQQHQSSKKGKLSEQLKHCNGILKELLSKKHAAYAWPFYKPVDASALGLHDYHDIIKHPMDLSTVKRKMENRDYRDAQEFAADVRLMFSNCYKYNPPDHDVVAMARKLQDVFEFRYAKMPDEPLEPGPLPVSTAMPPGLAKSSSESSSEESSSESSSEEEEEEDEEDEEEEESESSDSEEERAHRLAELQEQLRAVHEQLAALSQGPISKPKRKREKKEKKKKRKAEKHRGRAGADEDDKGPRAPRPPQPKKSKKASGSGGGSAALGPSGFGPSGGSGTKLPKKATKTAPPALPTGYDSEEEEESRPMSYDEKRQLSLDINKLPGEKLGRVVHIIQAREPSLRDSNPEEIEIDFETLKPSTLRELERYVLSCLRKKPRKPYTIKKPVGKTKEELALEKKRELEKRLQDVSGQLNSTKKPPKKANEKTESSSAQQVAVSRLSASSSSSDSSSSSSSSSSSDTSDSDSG
# Chain of Bromodomain-containing protein 3 (Q15059 whole entry): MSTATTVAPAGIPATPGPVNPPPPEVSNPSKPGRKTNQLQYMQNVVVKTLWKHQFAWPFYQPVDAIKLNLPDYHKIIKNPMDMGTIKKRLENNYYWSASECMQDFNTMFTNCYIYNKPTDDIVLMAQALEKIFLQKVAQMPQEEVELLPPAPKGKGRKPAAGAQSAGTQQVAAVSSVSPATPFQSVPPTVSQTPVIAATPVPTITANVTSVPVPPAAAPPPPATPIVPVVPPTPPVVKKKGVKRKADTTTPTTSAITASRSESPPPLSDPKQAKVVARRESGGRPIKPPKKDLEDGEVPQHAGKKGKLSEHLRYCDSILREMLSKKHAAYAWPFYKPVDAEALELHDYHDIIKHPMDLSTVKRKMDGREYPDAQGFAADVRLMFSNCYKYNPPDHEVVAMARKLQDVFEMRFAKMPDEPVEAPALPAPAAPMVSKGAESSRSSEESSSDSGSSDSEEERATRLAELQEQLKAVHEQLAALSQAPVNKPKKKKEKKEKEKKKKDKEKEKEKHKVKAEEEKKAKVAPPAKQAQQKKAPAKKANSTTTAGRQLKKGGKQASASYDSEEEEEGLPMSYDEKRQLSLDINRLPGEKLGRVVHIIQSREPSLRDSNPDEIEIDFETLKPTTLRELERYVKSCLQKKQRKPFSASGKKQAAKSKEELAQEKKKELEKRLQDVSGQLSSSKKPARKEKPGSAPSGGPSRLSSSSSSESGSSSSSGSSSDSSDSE
structure (smiles),measurement,setting,value
COc1ccccc1S(=O)(=O)Nc1ccc2c3c(cc(-n4cnc(C)c4)nc13)C(=O)N2C,half-life,[1],14.8 min
same,IC50,[2],12100 nM
same,Activity,Rattus norvegicus [3],0.43%
same,inhibition,[4],Active
same,microsomal CLint,[5],135 µL/min/mg
same,microsomal CLint,[6],147 µL/min/mg
same,half-life,[7],9.45 min
same,Kd,[8],> 25000 nM
same,inhibition,Rattus norvegicus [9],Active
same,inhibition,[10],Active
same,Selectivity ratio,Homo sapiens [11],238
same,inhibition,Rattus norvegicus [12],Active
same,Ratio IC50,Homo sapiens [13],102
same,IC50,[14],357 nM
same,IC50,[15],8950 nM
same,inhibition,Rattus norvegicus [16],Active
same,Activity,Rattus norvegicus [17],15.4%
same,Ratio IC50,Homo sapiens [18],6.5
same,inhibition,Rattus norvegicus [19],Active
same,CLint scaled,[20],192 mL/min/kg
same,Activity,[21],4.4%
same,inhibition,[22],Active
same,Kd,[23],105 nM
same,CLint scaled,[24],88.4 mL/min/kg
same,Ratio IC50,Homo sapiens [25],2.4
same,Ratio IC50,Homo sapiens [26],4.1
same,Activity,[27],4.1%
same,IC50,[28],246 nM
same,microsomal CLint,[29],133 µL/min/mg
same,Ratio IC50,Homo sapiens [30],568
same,microsomal CLint,[31],93.5 µL/min/mg
same,inhibition,Rattus norvegicus [32],Active
